Data published in patent US8247211B2, “Glycopeptide antibiotics” (American Cyanamid Company, priority 2001, dated 2012).

What was measured:
[1] = tested on: Enterococcus sp.; assay: In vitro antibacterial evaluation: minimum inhibitory concentration (MIC), broth dilution method; type: cell-based
Summary of the method: (§1)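 MIC read as lowest drug level preventing visible growth. Organisms at 5×10^5 CFU/mL were exposed to a 64-0.06 μg/mL dilution series in Muller-Hinton II […] following NCCLS broth dilution standard M7-A2.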

[2] = tested on: Escherichia coli; assay: as above; type: cell-based
Summary of the method: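 An MIC is reported for each organism as the least concentration giving inhibition, using broth dilution over 64-0.06 μg/mL with a 5×10^5 CFU/mL inoculum.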

[3] = tested on: Staphylococcus sp.; assay: as above; type: cell-based; conditions: for MIC Staphylococcus haemolyticus (GC 4546): strain GC 4546; for MIC Coagulase Negative Staphylococcus (GC 4547): strain GC 4547; for MIC Coagulase Negative Staphylococcus (GC 4548): strain GC 4548; for MIC Coagulase Negative Staphylococcus (GC 4549): strain GC 4549; for MIC Coagulase Negative Staphylococcus (GC 4551): strain GC 4551; for MIC Coagulase Negative Staphylococcus (GC 6257): strain GC 6257
Summary of the method: as §1

[4] = tested on: Streptococcus sp.; assay: as above; type: cell-based
Summary of the method: as §1

[5] = tested on: Staphylococcus aureus-SMITH (GC 4543); assay: Acute lethal infection in mice (ED50); type: in vivo; conditions: female CD-1 mice, intraperitoneal challenge, intravenous dose 30 min. after infection, 7 day survival ratios
Summary of the method: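 Female CD-1 mice (20 ± 1-2 g) were infected intraperitoneally with enough bacteria, suspended in Trypticase Soy Broth or hog gastric mucin, to kill untreated controls within 24-48 hr. Compound in saline or 5% dextrose was given intravenously 30 min after infection. ED50 came from pooled 7-day survival over 3 tests.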

[6] = broth dilution, 18 hours at 35° C.

Substance: Tri-N-[(phenylmethoxy)carbonyl]-cyclo[glycyl-β-methylphenylalanyltyrosyl-3-(2-iminoimidazolidin-4-yl)seryl-3-(3-hexopyranosyl-2-iminoimidazolidin-4-yl)serylseryl] [Example 89]
- MIC Enterococcus avium (GC 4558) ([1]; Enterococcus avium (GC 4558), broth dilution, 18 hours at 35° C.): 32 µg/mL
- MIC Enterococcus faecalis (ATCC 29212) ([1]; Enterococcus faecalis (ATCC 29212), broth dilution, 18 hours at 35° C.): 64 µg/mL
- MIC Enterococcus faecalis (GC 2242) ([1]; Enterococcus faecalis (GC 2242), broth dilution, 18 hours at 35° C.): 64 µg/mL
- MIC Enterococcus faecalis (GC 2691) ([1]; Enterococcus faecalis (GC 2691), broth dilution, 18 hours at 35° C.): 64 µg/mL
- MIC Enterococcus faecalis (GC 3059) ([1]; Enterococcus faecalis (GC 3059), broth dilution, 18 hours at 35° C.): 64 µg/mL
- MIC Enterococcus faecalis (GC 4552) ([1]; Enterococcus faecalis (GC 4552), broth dilution, 18 hours at 35° C.): 64 µg/mL
- MIC Enterococcus faecalis (GC 4553) ([1]; Enterococcus faecalis (GC 4553), broth dilution, 18 hours at 35° C.): 64 µg/mL
- MIC Enterococcus faecalis (GC 4554) ([1]; Enterococcus faecalis (GC 4554), broth dilution, 18 hours at 35° C.): 64 µg/mL
- MIC Enterococcus faecalis (GC 6189) ([1]; Enterococcus faecalis (GC 6189), broth dilution, 18 hours at 35° C.): 64 µg/mL
- MIC Enterococcus faecium (GC 2243) ([1]; Enterococcus faecium (GC 2243), broth dilution, 18 hours at 35° C.): 64 µg/mL
- MIC Enterococcus faecium (GC 4556) ([1]; Enterococcus faecium (GC 4556), broth dilution, 18 hours at 35° C.): 64 µg/mL
- MIC Enterococcus faecium (GC 4557) ([1]; Enterococcus faecium (GC 4557), broth dilution, 18 hours at 35° C.): 32 µg/mL
- MIC Enterococcus faecalis (ATCC 29212) ([1]; strain ATCC 29212): 64 µg/mL
- MIC Enterococcus faecalis (GC 2242) ([1]; strain GC 2242): 64 µg/mL
- MIC Enterococcus faecium (GC 2243) ([1]; strain GC 2243): 64 µg/mL
- MIC Enterococcus faecalis (GC 2691) ([1]; strain GC 2691): 64 µg/mL
- MIC Enterococcus faecalis (GC 3059) ([1]; strain GC 3059): 64 µg/mL
- MIC Enterococcus faecalis (GC 4552) ([1]; strain GC 4552): 64 µg/mL
- MIC Enterococcus faecalis (GC 4553) ([1]; strain GC 4553): 64 µg/mL
- MIC Enterococcus faecalis (GC 4554) ([1]; strain GC 4554): 64 µg/mL
- MIC Enterococcus faecium (GC 4556) ([1]; strain GC 4556): 64 µg/mL
- MIC Enterococcus faecium (GC 4557) ([1]; strain GC 4557): 32 µg/mL
- MIC Enterococcus avium (GC 4558) ([1]; strain GC 4558): 32 µg/mL
- MIC Enterococcus faecalis (GC 6189) ([1]; strain GC 6189): 64 µg/mL
- MIC Escherichia coli (ATCC 25922) ([2]; strain ATCC 25922): >64 µg/mL
- MIC Escherichia coli (GC 4559) ([2]; strain GC 4559): >64 µg/mL
- MIC Escherichia coli (GC 4560) ([2]; strain GC 4560): 32 µg/mL
- MIC Staphylococcus aureus (ATCC 29213) [3, 6]: 64 µg/mL
- MIC Staphylococcus aureus (GC 1131) [3, 6]: 64 µg/mL
- MIC Staphylococcus aureus (GC 3051) [3, 6]: 64 µg/mL
- MIC Staphylococcus aureus (GC 3053) [3, 6]: 64 µg/mL
- MIC Staphylococcus aureus (GC 4541) [3, 6]: 64 µg/mL
- MIC Staphylococcus aureus (GC 4542) [3, 6]: 64 µg/mL
- MIC Staphylococcus aureus (GC 4544) [3, 6]: 64 µg/mL
- MIC Staphylococcus aureus (GC 4545) [3, 6]: 64 µg/mL
- MIC Staphylococcus aureus (ATCC 29213) ([3]; strain ATCC 29213, broth dilution, 18 hours at 35° C.): 64 µg/mL
- MIC Staphylococcus aureus (GC 1131) ([3]; strain GC 1131, broth dilution, 18 hours at 35° C.): 64 µg/mL
- MIC Staphylococcus aureus (GC 3051) ([3]; strain GC 3051, broth dilution, 18 hours at 35° C.): 64 µg/mL
- MIC Staphylococcus aureus (GC 3053) ([3]; strain GC 3053, broth dilution, 18 hours at 35° C.): 64 µg/mL
- MIC Staphylococcus aureus (GC 4541) ([3]; strain GC 4541, broth dilution, 18 hours at 35° C.): 64 µg/mL
- MIC Staphylococcus aureus (GC 4542) ([3]; strain GC 4542, broth dilution, 18 hours at 35° C.): 64 µg/mL
- MIC Staphylococcus aureus-SMITH (GC 4543) ([3]; strain GC 4543, 18 hours at 35° C.): 64 µg/mL
- MIC Staphylococcus aureus (GC 4544) ([3]; strain GC 4544, broth dilution, 18 hours at 35° C.): 64 µg/mL
- MIC Staphylococcus aureus (GC 4545) ([3]; strain GC 4545, broth dilution, 18 hours at 35° C.): 64 µg/mL
- MIC Staphylococcus haemolyticus (GC 4546) [3]: 32 µg/mL
- MIC Staphylococcus haemolyticus (GC 4546) [3, 6]: 32 µg/mL
- MIC Coagulase Negative Staphylococcus (GC 4547) [3]: 32 µg/mL
- MIC Coagulase Negative Staphylococcus (GC 4547) [3, 6]: 32 µg/mL
- MIC Coagulase Negative Staphylococcus (GC 4548) [3]: 64 µg/mL
- MIC Coagulase Negative Staphylococcus (GC 4548) [3, 6]: 64 µg/mL
- MIC Coagulase Negative Staphylococcus (GC 4549) [3]: 64 µg/mL
- MIC Coagulase Negative Staphylococcus (GC 4549) [3, 6]: 64 µg/mL
- MIC Coagulase Negative Staphylococcus (GC 4551) [3]: 64 µg/mL
- MIC Coagulase Negative Staphylococcus (GC 4551) [3, 6]: 64 µg/mL
- MIC Coagulase Negative Staphylococcus (GC 6257) [3]: 32 µg/mL
- MIC Coagulase Negative Staphylococcus (GC 6257) [3, 6]: 32 µg/mL
- MIC Staphylococcus aureus-SMITH (GC 4543) ([3]; strain SMITH GC 4543, broth dilution, 18 hours at 35° C.): 64 µg/mL
- MIC Streptococcus agalactiae (GC 4564) ([4]; Streptococcus agalactiae (GC 4564), broth dilution, 18 hours at 35° C.): 32 µg/mL
- MIC Streptococcus pneumoniae (ATCC 6301) ([4]; Streptococcus pneumoniae (ATCC 6301), broth dilution, 18 hours at 35° C.): 16 µg/mL
- MIC Streptococcus pneumoniae (GC 1894) ([4]; Streptococcus pneumoniae (GC 1894), broth dilution, 18 hours at 35° C.): 4 µg/mL
- MIC Streptococcus pneumoniae (GC 4565) ([4]; Streptococcus pneumoniae (GC 4565), broth dilution, 18 hours at 35° C.): 8 µg/mL
- MIC Streptococcus pyogenes (GC 4563) ([4]; Streptococcus pyogenes (GC 4563), broth dilution, 18 hours at 35° C.): 32 µg/mL
- MIC Streptococcus pneumoniae (ATCC 6301) ([4]; strain ATCC 6301): 16 µg/mL
- MIC Streptococcus pneumoniae (GC 1894) ([4]; strain GC 1894): 4 µg/mL
- MIC Streptococcus pyogenes (GC 4563) ([4]; strain GC 4563): 32 µg/mL
- MIC Streptococcus agalactiae (GC 4564) ([4]; strain GC 4564): 32 µg/mL
- MIC Streptococcus pneumoniae (GC 4565) ([4]; strain GC 4565): 8 µg/mL
- median effective dose (ED50), Staphylococcus aureus-SMITH (GC 4543) [5]: >8
